Here are results for eight compounds from patent publication US20250360143A1, “COMPOSITIONS AND METHODS FOR PHA[…] OF STROKE AND […] REPERFUSION INJURY” (priority 2022, published 2025).

Molecules are shown by their SMILES. “Also recorded” adds a separate entry of the source. Structures can show the parent of a compound that is named as a salt. Where two headings read alike, the source gives them in different places.

Experiment [1] deals with 45 receptors, channels and transporters. Briefly: Off-target binding at 45 receptors, channels and transporters (NIMH PDSP). The following applies: at 10 μM.
A further experiment addresses T1, mP2X4R (Mus musculus, UniProt Q9JJX6).
T1 sequence (Q9JJX6 1-388): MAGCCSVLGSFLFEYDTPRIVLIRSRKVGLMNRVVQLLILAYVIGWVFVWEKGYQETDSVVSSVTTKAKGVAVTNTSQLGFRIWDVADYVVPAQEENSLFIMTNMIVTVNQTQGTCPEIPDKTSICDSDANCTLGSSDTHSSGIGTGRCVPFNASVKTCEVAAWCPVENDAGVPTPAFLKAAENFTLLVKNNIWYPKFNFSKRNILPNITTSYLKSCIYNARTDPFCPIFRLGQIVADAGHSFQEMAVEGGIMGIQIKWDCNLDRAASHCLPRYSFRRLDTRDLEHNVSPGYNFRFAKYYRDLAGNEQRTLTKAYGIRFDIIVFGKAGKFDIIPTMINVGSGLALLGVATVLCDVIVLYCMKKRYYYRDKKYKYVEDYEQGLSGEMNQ
The following applies: compared with hP2X4R; cited from earlier work.

For a further experiment, the system named is mouse. As to conditions: cited from earlier work.
Another experiment concerns the target T2, D3 dopamine receptor (Homo sapiens, UniProt P35462).
T2 construct: NIMH Psychoactive Drug Screening program
Briefly: Off-target binding, NIMH Psychoactive Drug Screening program. As to conditions: read-out: inhibition of binding at D3 dopamine receptor.

A further experiment concerns the target T3, H2 histamine receptor (Homo sapiens, UniProt P25021).
T3 construct: NIMH Psychoactive Drug Screening program
The experiment is described as above. As to conditions: read-out: inhibition of binding at H2 histamine receptor.

The test system of experiment [2] is C57B/6 mice, transient focal cerebral ischemia (MCAo). The following applies: mouse, in vivo.
For experiment [3], the system named is mice, LAD ligation ischemia/reperfusion. Briefly: Myocardial ischemia/reperfusion (LAD ligation), echocardiography. In kind it is in vivo, mouse. The following applies: 2 mg/kg/day s.c. minipump 3 days at reperfusion after 60 min LAD occlusion, 2 weeks or 4 weeks post-I/R, vs vehicle.
Experiment [4] concerns middle-aged mice after MCAo. As to conditions: dose 3 mg/kg; four weeks after MCAo; vs Veh; listed as MRS 4719, 3 mg/kg.
Experiment [5] relates to C57B/6 mice, transient focal cerebral ischemia (MCAo). As to conditions: 1 mg/kg/day for 3 days from onset of acute stroke; previously shown; cited from earlier work.
The next experiment addresses T4, hP2X1R (Homo sapiens, UniProt P51575).
T4 construct: expressed in transfected cells; host or cells: CHO-K1
T4 sequence (P51575 1-399): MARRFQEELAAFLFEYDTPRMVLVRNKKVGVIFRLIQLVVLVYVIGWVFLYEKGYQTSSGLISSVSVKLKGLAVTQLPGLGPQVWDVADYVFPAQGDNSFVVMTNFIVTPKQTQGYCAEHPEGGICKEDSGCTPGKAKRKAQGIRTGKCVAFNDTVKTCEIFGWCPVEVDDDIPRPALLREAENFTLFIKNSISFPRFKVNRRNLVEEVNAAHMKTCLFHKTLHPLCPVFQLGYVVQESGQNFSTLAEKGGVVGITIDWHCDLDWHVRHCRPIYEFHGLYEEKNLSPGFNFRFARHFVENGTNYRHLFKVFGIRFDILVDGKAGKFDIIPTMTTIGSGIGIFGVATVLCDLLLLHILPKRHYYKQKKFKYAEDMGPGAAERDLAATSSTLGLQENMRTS
Briefly: cell-based. The following applies: for inhibition at 30 µM: CHO-K1, percent inhibition at 30 μM, agonist α,β-MeATP 1.0 μM, read-out: hP2X1R % inhib.

Another experiment concerns the target T5, hP2X2/3R (Homo sapiens, UniProt P56373+Q9UBL9).
T5 construct: expressed in transfected cells; host or cells: CHO-K1
T5 sequence (Q9UBL9 1-471): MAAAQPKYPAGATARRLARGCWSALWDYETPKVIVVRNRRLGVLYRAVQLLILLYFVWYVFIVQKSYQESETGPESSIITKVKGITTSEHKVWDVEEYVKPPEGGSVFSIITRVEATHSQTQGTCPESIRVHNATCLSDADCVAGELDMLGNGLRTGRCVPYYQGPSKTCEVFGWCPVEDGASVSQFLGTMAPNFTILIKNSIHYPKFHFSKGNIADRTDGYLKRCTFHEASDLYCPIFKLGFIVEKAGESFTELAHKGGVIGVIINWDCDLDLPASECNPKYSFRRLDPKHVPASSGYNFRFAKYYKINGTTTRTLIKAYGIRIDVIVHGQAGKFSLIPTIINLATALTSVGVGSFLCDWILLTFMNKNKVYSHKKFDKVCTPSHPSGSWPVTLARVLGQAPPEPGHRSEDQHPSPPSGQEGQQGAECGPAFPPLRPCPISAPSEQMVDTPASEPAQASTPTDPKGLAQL
T5 sequence (P56373 1-397): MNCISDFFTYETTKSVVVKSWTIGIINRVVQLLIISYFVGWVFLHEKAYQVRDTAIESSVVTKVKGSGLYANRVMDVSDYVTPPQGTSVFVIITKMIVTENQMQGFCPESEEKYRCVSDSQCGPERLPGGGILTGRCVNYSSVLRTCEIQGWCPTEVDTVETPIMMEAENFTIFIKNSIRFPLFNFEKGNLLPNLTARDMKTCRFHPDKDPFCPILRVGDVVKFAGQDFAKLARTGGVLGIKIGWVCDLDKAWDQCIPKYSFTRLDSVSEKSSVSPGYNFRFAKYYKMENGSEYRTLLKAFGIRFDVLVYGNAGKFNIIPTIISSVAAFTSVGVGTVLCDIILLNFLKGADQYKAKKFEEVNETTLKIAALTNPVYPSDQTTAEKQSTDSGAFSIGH
Briefly: cell-based. As to conditions: for inhibition at 30 µM: CHO-K1, percent inhibition at 30 μM, agonist α,β-MeATP 5.0 μM, read-out: hP2X2/3R % inhib. In kind it is cell-based.

In a further experiment the target is T6, hP2X3R (Homo sapiens, UniProt P56373).
T6 construct: expressed in transfected cells; host or cells: CHO-K1
T6 sequence (P56373 1-397): T5 sequence (P56373 1-397)
Briefly: cell-based. The following applies: for inhibition at 30 µM: CHO-K1, percent inhibition at 30 μM, agonist α,β-MeATP 1.0 μM, read-out: hP2X3R % inhib. The experiment is classed as cell-based.

The next experiment has as its target T7, hP2X4R (Homo sapiens, UniProt Q99571).
T7 construct: expressed in transfected cells; host or cells: HEK-293
T7 sequence (Q99571 1-388): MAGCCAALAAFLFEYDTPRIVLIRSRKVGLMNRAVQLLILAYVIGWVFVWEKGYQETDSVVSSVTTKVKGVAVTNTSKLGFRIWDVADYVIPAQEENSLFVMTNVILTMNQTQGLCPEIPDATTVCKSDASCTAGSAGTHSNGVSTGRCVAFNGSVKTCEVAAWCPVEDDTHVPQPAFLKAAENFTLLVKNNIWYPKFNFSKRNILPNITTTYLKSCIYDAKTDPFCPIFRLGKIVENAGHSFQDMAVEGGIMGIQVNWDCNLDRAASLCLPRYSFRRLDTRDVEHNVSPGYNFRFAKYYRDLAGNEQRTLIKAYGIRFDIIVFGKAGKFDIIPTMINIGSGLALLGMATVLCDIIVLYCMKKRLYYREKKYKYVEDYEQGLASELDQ
Briefly: cell-based. The experiment is classed as cell-based.

T2 sequence (P35462 whole entry): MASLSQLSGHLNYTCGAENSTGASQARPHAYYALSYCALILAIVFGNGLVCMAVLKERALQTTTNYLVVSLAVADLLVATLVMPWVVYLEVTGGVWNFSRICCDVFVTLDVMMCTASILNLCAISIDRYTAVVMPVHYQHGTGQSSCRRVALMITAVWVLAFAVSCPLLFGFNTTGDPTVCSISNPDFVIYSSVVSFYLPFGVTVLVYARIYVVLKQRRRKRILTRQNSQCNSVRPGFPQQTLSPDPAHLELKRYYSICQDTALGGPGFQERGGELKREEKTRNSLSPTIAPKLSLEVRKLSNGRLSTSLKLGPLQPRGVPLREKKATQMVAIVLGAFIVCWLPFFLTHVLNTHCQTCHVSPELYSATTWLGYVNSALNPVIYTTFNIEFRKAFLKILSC
T3 sequence (P25021 whole entry): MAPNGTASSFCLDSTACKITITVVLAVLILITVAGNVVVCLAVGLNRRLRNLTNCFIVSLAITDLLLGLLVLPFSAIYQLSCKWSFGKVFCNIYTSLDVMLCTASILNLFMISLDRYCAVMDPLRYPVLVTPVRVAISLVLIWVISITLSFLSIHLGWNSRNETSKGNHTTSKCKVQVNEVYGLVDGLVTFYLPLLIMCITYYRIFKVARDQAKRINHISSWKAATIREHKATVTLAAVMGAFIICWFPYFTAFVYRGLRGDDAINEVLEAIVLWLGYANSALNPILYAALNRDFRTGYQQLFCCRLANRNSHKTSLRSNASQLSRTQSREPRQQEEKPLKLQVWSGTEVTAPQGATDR

With `O=C1CC(=O)N(c2cccc(-c3noc(=S)[nH]3)c2)c2ccc3ccccc3c2N1.[Na]` [Compound 22a, 5-(3-(5-Thioxo-4,5-dihydro-1,2,4-oxadiazol-3-yl)phenyl)-1,5-dihydro-2H-naphtho[1,2-b][1,4]diazepine-2,4(3H)-dione sodium salt], the “off-target interactions at 45 receptors, channels and transporters” value (from here on “off-target interactions at 45 receptors”) in experiment [1] is “no significant interactions”. Further, the “potency in blocking mP2X4R effects in vitro” value on mP2X4R is recorded as “as potent in blocking mP2X4R effects in vitro as at hP2X4R”. In addition, the “in vivo efficacy in the mouse” value in the experiment with mouse is recorded as “considerable in vivo efficacy”.

For the compound `O=C1CC(=O)N(c2cccc(-c3noc(=S)[nH]3)c2)c2cc(Br)c3ccccc3c2N1` [Compound 21d, 7-Bromo-5-(3-(5-thioxo-4,5-dihydro-1,2,4-oxadiazol-3-yl)phenyl)-1,5-dihydro-2H-naphtho[1,2-b][1,4]diazepine-2,4(3H)-dione triethylamine salt], the “off-target interactions at 45 receptors” value in experiment [1] is on record as “no significant interactions”.

As for `O=C1CC(=O)N(c2ccnc(-c3noc(=S)[nH]3)c2)c2ccc3ccccc3c2N1` [Compound 21u, 5-(2-(5-Thioxo-4,5-dihydro-1,2,4-oxadiazol-3-yl)pyridin-4-yl)-1,5-dihydro-2H-naphtho[1,2-b][1,4]diazepine-2,4(3H)-dione triethylamine salt], at D3 dopamine receptor, the inhibition at 10 µM amounted to 74 ± 10%. Further, the inhibition at 10 µM on H2 histamine receptor was 89 ± 4%. In addition, in experiment [2], the cortical infarct volume result is on record as “significantly reduced”, the striatal infarct volume result is “no statistically significant decrease” and the “total hemispheric infarct volume” value was “significantly reduced”. In addition, in experiment [2] (3 mg/kg), the “neuroprotection based on total hemispheric infarct volume size” value is reported as “significant neuroprotection”. Further, in [3] (listed as MRS 4719), the “decline in fractional shortening (FS)” value was “less than those in vehicle-treated mice” and the “decline in left ventricular ejection fraction (EF)” value is “less than those in vehicle-treated mice”. Besides, in [3] (listed as MRS4719), the “decline in fractional shortening (FS)” value is reported as “lesser degree of decline” and the “decline in left ventricular ejection fraction (EF)” value is “lesser degree of decline”. In addition, in experiment [4], the “learning and memory, NORT” value is “significant retention of memory; also recorded: reached to statistical significance”.

Regarding `O=C1CN=C(c2cccc(Br)c2)c2oc3ccccc3c2N1` [Compound 5-BDBD, 5-(3-bromophenyl)-1,3-dihydro-2H-benzofuro[3,2-e]-1,4-diazepin-2-one], the stroke infarct size result in [5] was “reduced stroke infarct size”.

The term IC50 denotes the concentration at which inhibition is half-maximal. Lower therefore signals greater potency in that assay. As for `CCN(CC)CC.Cc1ccc2c(Br)cc3c(c2c1)NC(=O)CC(=O)N3c1cccc(-c2noc(=S)[nH]2)c1` [Compound 21e, 7-Bromo-10-methyl-5-(3-(5-thioxo-4,5-dihydro-1,2,4-oxadiazol-3-yl)phenyl)-1,5-dihydro-2H-naphtho[1,2-b][1,4]diazepine-2,4(3H)-dione triethylamine salt], the hP2X1R % inhib. at hP2X1R was −2%. For the same compound, on hP2X2/3R, the hP2X2/3R % inhib. is listed as −5%. Moreover, at hP2X3R, the hP2X3R % inhib. was determined as 17%. For the same compound, at hP2X4R, the IC50 worked out at 11.8 µM and the “hP2X4R inhibitory activity relative to 22a, in words” value is “only moderately reduced activity”.

With `O=C1CC(=O)N(c2cccc(-c3noc(=S)[nH]3)c2)c2cc(C#Cc3cccnc3)c3ccccc3c2N1` [Compound 21n, 7-(Pyridin-3-ylethynyl)-5-(3-(5-thioxo-4,5-dihydro-1,2,4-oxadiazol-3-yl)phenyl)-1,5-dihydro-2H-naphtho[1,2-b][1,4]diazepine-2,4(3H)-dione], the inhibition at 30 µM on hP2X1R was found to be 9%; at hP2X2/3R it was 13%; on hP2X3R it was 9%; at hP2X4R (HEK293, read-out: hP2X4R % inhib.), 34%.

Take `Cc1ccc2c3c(ccc2c1)N(c1cccc(-c2noc(=S)[nH]2)c1)C(=O)CC(=O)N3` [Compound 21c, 9-Methyl-5-(3-(5-thioxo-4,5-dihydro-1,2,4-oxadiazol-3-yl)phenyl)-1,5-dihydro-2H-naphtho[1,2-b][1,4]diazepine-2,4(3H)-dione]: in experiment [1], the “off-target interactions at 45 receptors” value is “no significant interactions”. In addition, in experiment [2] (5 mg/kg/day), the “cortical infarct volume alone” value is “not statistically significant”, the “striatal infarct volume alone” value is “not statistically significant” and the “total hemispheric infarct volume” value is recorded as “moderate but significant decrease; also recorded: reduced total hemispheric infarct volume”.

On to `O=C1CC(=O)N(c2cccc(-c3noc(=S)[nH]3)n2)c2ccc3ccccc3c2N1` [Compound 21v, 5-(6-(5-Thioxo-4,5-dihydro-1,2,4-oxadiazol-3-yl)pyridin-2-yl)-1,5-dihydro-2H-naphtho[1,2-b][1,4]diazepine-2,4(3H)-dione triethylamine salt], for which the inhibition at 30 µM on hP2X1R is at most 31%; on hP2X2/3R, 15%; on hP2X3R, 17%. Besides, the “hP2X4R inhibitory activity relative to 22a, in words” value on hP2X4R is reported as “reduce”. Further, the IC50 at hP2X4R (agonist CTP 10 μM (~EC80)) was determined as 6.48 µM.
